How the values were obtained:
Type in all cases: cell-based
[1] = system: SH-SY5Y cells; assay: Neuroprotection against rotenone/oligomycin A, pre-incubation model, MTT; conditions: Homo sapiens, compound 1 μM pre-incubation 24 h, then Rot/Olig (30/10 μM); for viability at 1 µM: read-out: % Survival
Description: (§1) SH-SY5Y cells [ECACC 94030304], in 5 to 16 passage after defreezing were maintained in Eagle media modified by Dulbecco (DMEM) containing 15 non-essential amino acids and supplemented with 10% fetal bovine serum, 1 mM glutamine, 50 units/mL penicillin/streptomycin (obtained from GIBCO, Madrid, Spain). Cells were seeded in flasks containing supplemented media and were maintained in an incubator at 37° C. and 5% CO2. 1:4 passes were performed twice per week. For the experiments, cells were seeded in 24 well-plates at a density of 2×10^5 cells/well, or in 96 well-plates at a density of 8×10^4 cells/well. For cytotoxicity experiments, cells were treated with the compounds before confluence with DMEM media supplemented with fetal bovine serum 1%.
(§2) In order to assess cellular viability, we measured the metabolic reduction of 3-(4,5-Dimethylthiazol-2-yl)-2,5 diphenyltetrazolium bromide (MTT). MTT is an indirect assay to measure cellular viability. It is a colorimetric method based on the reduction of 3-(4,5-Dimethylthiazol-2-yl)-2,5 diphenyltetrazolium. This process is performed by the mitochondrial enzyme succinate-dehydrogenase present in metabolic active cells. Thus, the water-soluble yellow MTT (tetrazolium salt) is transformed into a insoluble purple compound (formazan). Quantity of living cells is directly proportional to the quantity of formazan (Mosmann, 1983, J Immunol Methods, 65: 55-63). […] Therefore, with this assay we can measure cellular surviving and proliferation and also, we can determine the cytotoxicity of potential neuroprotective compounds. In order to assess cellular viability in SH-SY5Y cell line, we added 30 μl/well of MTT (5 mg/mL) and after 2 h, medium was carefully removed to avoid losing the formazan and was diluted in 300 μL of DMSO. Afterwards, samples were transferred to a 96 well-plate and the absorbance was measured at 570 nm using a absorbance/fluorescence reader FluoStar optima®. Every MTT assay was performed in triplicates. Absorbance values obtained with the toxic alone were subtracted to the absorbance values obtained in basal conditions (without treatment). That result was considered as the 100% of cell death and the values obtained with the compounds in the presence of the toxic stimulus were normalized as percentages of that value. For determining the surviving percentage, those percentages of cell death were subtracted to 100.
(§3) Neuroprotection elicited by the compounds of the invention 1-16: The activation of Nrf2-ARE pathway by different compounds exerts neuroprotective effects against toxic models based on oxidative stress via the expression of cytoprotective genes. […] We evaluated the neuroprotective potential of the compounds using the human neuroblastoma cell line using the following cytotoxicity models: 1) oxidative stress induced by rotenone+oligomycin, both blockers of the electron transport chain as previously described (Halliwell, 1992, J Neurochem, 59: 1609-23, Newhouse y col., 2004, Toxicol Sci, 79: 137-46), and 2) cytotoxicity induced by the electrophilic compound Menadione. This compound produces oxidative stress after being metabolized by microsomal enzymes in the cell which produces hydroxyl radical and oxygen reactive species. As a consequence, there is a depolarization of mitochondrial membrane generating a release of apoptotic factors such as cytochrome c, and activating the caspase cascade (Loor y col., 2010, Free Radic Biol Med, 49: 1925-36, Chuang y col., 2002, Cancer Res, 62: 6246-54). Caspase 3 activation can produce the lysis of proteins and induce DNA fragmentation, leading to cell death (Gerasimenko y col., 2002, J Cell Sci, 115: 485-97).
For this study we propose a protocol in which the cells are pre-incubated with each of the derivatives at 1 μM for 24 h. After the pre-incubation period, the medium was removed and replaced by culture medium with the rotenone/oligomycin-A (30 μM and 10 μM, respectively) toxic mixture. […]

[2] = system: SH-SY5Y cells; assay: Neuroprotection against oxidative stress induced by menadione, pre- and co-incubation, MTT; conditions: Homo sapiens, 24 h, compound 1 μM pre- and co-incubation, Menadione (8 mM); for viability at 1 µM: read-out: % Survival
Description: as §1, §2, §3
To further confirm the neuroprotective capacity in another model of oxidative stress, menadione was selected as toxic stimulus. […]

[3] = system: Nrf2 transcription factor (Nrf2-ARE); assay: Nrf2-ARE induction, luciferase activity in AREc32 (MCF7 cells stably transfected with ARE-LUC); conditions: Homo sapiens, 24 h, basal = 1, read-out: Relative Luciferase activity (response versus basal)
Description: For the study of Nrf2 transcription factor, the cellular line AREC32 was used, which is characterized for being stably transfected with the reporter gene of Luciferase linked to the ARE sequence. In the presence electrophilic compounds or oxidative stress, Nrf2 factor binds to ARE sequences, activating luciferase expression and producing a proportional quantity of luciferase. The AREc32 cells were cultured in DMEM media with glutamax, supplemented with 10% fetal bovine serum (FBS), 1% penicillin-streptomycin and 1.6% geneticine (G418) (obtained from GIBCO, Madrid, Spain). Cells were cultured in 75 cm flasks with 11 mL of specific media, incubated at 37° C. and 5% of CO2. Cells were passed every 4-6 days (1:4), whenever the confluence reached 80%. For the experiments, cells were cultured in transparent surface 96 well plates at a density of […] with 100 μL/well. After 24 h in culture, cells were treated with the compounds at different concentrations (1, 10, 30 and 60 μM) during 24 h at 37° C. and 5% CO2. In every experiment it was also included a basal variable, a variable with 10 μM tert-butyl hydroquinone (TBHQ) (positive control) and the variables of the study in a final volume of 100 μL. After an incubation of 24 h with the compounds, luciferase activity was measured by bioluminescence using the commercial kit “Luciferase assay system” (Promega E1500). For that, treatments were removed and cells were washed with 100 μL of PBS 0.1 M. After washing, 20 μL of “lysis buffer” reactive was added to each well. 10 minutes later, luminescence was measured using the multi-well reader FluoStar optima (BMG labtech).
Luminescence was measured in arbitrary units and is directly proportional to luciferase quantity in the wells, which is also directly proportional to Nrf2 transcription factor induction by the specific compound at the established concentration. Measurements were made in duplicate and values were normalized to the basal luminescence value, considered as 1.
The results of Nrf2 induction obtained for the compounds 1 to 16 are shown in Table 1 and are expressed as induction, considering 1 the non-treated cells.

Row | Structure (SMILES) | percent protection against toxin-induced cell death at 1 µM [1] [%] | viability at 1 µM [1] [%] | % protection against menadione toxicity at 1 µM [2] [%] | viability at 1 µM [2] [%] | fold induction at 10 µM [3] | fold induction at 30 µM [3] | fold induction at 60 µM [3]
1 | CC(=O)NCCc1c[nH]c2ccc(OC(=O)/C=C/c3ccccc3C(F)(F)F)cc12 [Compound 13, 3-(2-acetamidoethyl)-1H-indol-5-yl (E)-3-(2-(trifluoromethyl)phenyl)acrylate] | 22.1 | 67 ± 3.01 | 36.2 | 74.9 ± 2.19 | 1.38 ± 0.1 | 1.79 ± 0.1 | 2.55 ± 0.2
2 | CC(=O)NCCc1c[nH]c2ccc(OC(=O)/C=C/c3cccc(C(F)(F)F)c3)cc12 [Compound 14, 3-(2-acetamidoethyl)-1H-indol-5-yl (E)-3-(3-(trifluoromethyl)phenyl)acrylate] | 34.9 | 72.5 ± 2.92 | 44.8 | 78.5 ± 3.03 | 1.34 ± 0.2 | 1.64 ± 0.2 | 2.13 ± 0.2
3 | CC(=O)NCCc1c[nH]c2ccc(OC(=O)/C=C/c3ccc(C(F)(F)F)cc3)cc12 [Compound 15, 3-(2-acetamidoethyl)-1H-indol-5-yl (E)-3-(4-(trifluoromethyl)phenyl)acrylate] | 37.5 | 73.4 ± 3.31 | 31.6 | 73.2 ± 3.43 | 2.34 ± 0.2 | 4.99 ± 0.5 | 28.9 ± 2.9
4 | CC(=O)NCCc1c[nH]c2ccc(OC(=O)/C=C/c3ccc([N+](=O)[O-])cc3)cc12 [Compound 16, 3-(2-acetamidoethyl)-1H-indol-5-yl (E)-3-(4-nitrophenyl)acrylate] | 23 | 68.5 ± 2.88 | 53.6 | 84.3 ± 2.15 | 1.69 ± 0.1 | 2.41 ± 0.1 | 3.19 ± 0.1
